# Article PMC10331789 (Journal of natural products, 2023)
# Target: Na+/K+-ATPase (NKA)
# Assay: luminescent ADP detection assay
# Type: biochemical, Sus scrofa
structure (smiles),measurement,value
"CO[C@H]1C[C@H](O[C@H]2CC[C@@]3(C)[C@@H](C2)C[C@@H]2O[C@]24[C@@H]3[C@H](O)C(=O)[C@]2(C)[C@@H](C3=CC(=O)OC3)CC[C@]42O)O[C@@H](C)[C@@H]1O [compound 1, (–)-cryptanoside A]",IC50,1.2 µM
